Experimental findings from patent US20260137697A1, “THIAZOLO[5,4-D]PYRIMIDINE COMPOUNDS, COMPOSITIONS COMPRISING THEM AND USES THEREOF” (University de Montreal, priority 2022, published 2026) are described below.

The structures appear in SMILES notation.

One test deals with T1, CRAF (Homo sapiens, UniProt P04049).
T1 construct: fused on or other part: GST tag (N-terminal according to the vendor's product)
Briefly: CRAF kinase activity assay (ADP-Glo). In kind it is biochemical. Conditions: Table 3; 10 μM ATP, kinase-dead MEK1 substrate. The method, boiled down: (§1)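 GST-tagged kinase (0.375 nM) with 75 nM kinase-dead MEK1 and 10 μM ATP in HEPES pH 7.5 buffer, 2 h at 30° C, nine concentrations 100–0.01 nM, 0.05% DMSO. ADP-Glo luminescence; % inhibition vs DMSO and substrate-only blanks, IC50 by four-parameter fit.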

The target of another test is T2, BRAF (Homo sapiens, UniProt P15056).
T2 construct: GST; purchased Millipore Sigma B4062-10UG
T2 sequence (P15056 whole entry): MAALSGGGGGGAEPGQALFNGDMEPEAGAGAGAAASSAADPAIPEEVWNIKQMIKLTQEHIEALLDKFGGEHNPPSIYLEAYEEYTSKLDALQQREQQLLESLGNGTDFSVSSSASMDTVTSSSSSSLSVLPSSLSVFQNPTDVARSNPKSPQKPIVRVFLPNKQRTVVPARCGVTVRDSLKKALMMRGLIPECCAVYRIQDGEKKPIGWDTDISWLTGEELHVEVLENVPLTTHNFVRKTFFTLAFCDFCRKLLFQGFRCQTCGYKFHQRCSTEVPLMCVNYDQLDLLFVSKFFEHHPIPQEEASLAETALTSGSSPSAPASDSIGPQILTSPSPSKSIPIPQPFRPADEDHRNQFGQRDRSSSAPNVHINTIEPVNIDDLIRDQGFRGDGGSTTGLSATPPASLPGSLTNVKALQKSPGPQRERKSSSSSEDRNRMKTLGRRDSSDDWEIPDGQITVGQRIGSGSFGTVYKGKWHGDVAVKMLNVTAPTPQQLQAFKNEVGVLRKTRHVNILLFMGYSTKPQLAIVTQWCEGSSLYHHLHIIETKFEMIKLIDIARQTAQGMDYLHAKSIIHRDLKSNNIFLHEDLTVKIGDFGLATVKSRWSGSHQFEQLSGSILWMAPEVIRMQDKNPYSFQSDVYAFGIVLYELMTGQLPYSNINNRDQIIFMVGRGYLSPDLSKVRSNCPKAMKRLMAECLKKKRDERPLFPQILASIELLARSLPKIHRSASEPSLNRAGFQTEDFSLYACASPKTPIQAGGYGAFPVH
Briefly: BRAF kinase activity assay (ADP-Glo). In kind it is biochemical. Conditions: Table 3; 10 μM ATP, kinase-dead MEK1 substrate. In short, it runs like this:
as §1
Background: ADP-Glo turns the ADP formed in a reaction into a luminescent signal.

The next test deals with A2058 cells. The test can be described thus: Proliferation inhibition, CellTiter-Glo, A2058. In kind it is cell-based, human. The settings on record: Table D-1; A2058 (BRAF V600E), 3 days; read-out: Prolif. (proliferation EC50). As to the method:
All cancer cell lines (A375, A101D, A2058, RKO, HT29 SK-MEL 30, IPC298, HepG2, HCT-116, Lovo, SW620, SW480, NCI-H358, NCI-H2122, Calu-6, NCIH2087, NCIH1755, NCIH1666 and Mewo) were obtained from ATCC and cultured in RPM1-1640 medium (Gibco) supplemented with 5% heat inactivated fetal bovine serum (FBS, Wisent) at 37° C. under 5% CO2. Cells were maintained in T175 flasks (Greiner). They were passaged by removing the culture medium, washing once in 10 mL of room temperature Phosphate Buffered Saline (PBS; Wisent) and incubating at 37° C. with 2 mL of 0.05% Trypsin (Thermo-Fisher). […]
After 3 days of incubation, the growth media were removed by aspiration and 60 μL of diluted CellTiter-Glo® reagent (10 μL CellTiter-Glo® reagent+50 μL of PBS) was added to each well. […] Luminescence signals were then acquired on a Synergy Neo2 plate reader (Biotek).
The effect of each compound dilution on the proliferation of cancer cell lines was expressed in % inhibition and calculated as follows. […]
The ability of each compound to inhibit proliferation was expressed as a EC50 value obtained by plotting the effect values for each data point of a dilution series and fitting the obtained curves using a log(agonist) versus response—variable slope (four parameters) function using GraphPadPrism (V7.0) or Dotmatics Screening Ultra platform.
(ATP-based viability assays read luminescence as a measure of living cells.)

T1 sequence (P04049 whole entry Y340E/Y341E, form open, the tested form may be a part): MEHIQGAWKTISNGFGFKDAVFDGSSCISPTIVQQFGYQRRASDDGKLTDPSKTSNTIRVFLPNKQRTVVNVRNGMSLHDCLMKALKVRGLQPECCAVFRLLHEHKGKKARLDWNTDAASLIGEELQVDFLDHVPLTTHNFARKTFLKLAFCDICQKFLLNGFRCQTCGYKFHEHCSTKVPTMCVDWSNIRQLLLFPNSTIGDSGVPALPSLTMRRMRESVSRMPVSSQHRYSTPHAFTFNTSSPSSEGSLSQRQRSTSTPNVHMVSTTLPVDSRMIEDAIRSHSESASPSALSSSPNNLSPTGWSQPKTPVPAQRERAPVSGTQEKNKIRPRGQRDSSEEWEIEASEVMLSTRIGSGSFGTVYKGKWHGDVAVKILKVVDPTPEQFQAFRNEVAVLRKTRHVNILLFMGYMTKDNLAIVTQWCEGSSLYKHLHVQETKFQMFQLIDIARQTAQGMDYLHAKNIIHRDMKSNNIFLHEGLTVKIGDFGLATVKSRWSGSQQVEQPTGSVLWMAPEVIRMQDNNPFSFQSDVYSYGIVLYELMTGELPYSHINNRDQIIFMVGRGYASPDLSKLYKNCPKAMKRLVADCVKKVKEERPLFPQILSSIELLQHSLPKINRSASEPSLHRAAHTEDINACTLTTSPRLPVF

One may read the IC50 as the concentration at which inhibition is half-maximal. Take `Cc1c(F)cccc1S(=O)(=O)Nc1ccc(F)c(Nc2ncnc3sc(-n4cc(C(=O)N5C6CCC5CN(C)C6)c5ccccc54)nc23)c1F` [Example 44]: the IC50 at CRAF is less than 0.01 µM; at BRAF, less than 0.001 µM. In addition, the EC50 in the test on A2058 cells is less than 0.3 µM.
In the same order, the values of `N#CC1(c2cccc3c2ncn3-c2nc3c(Nc4c(F)ccc(NS(=O)(=O)c5cccc(Cl)c5Cl)c4F)ncnc3s2)CC1` [Example 122] are less than 0.01 µM, 0.001 to 0.01 µM and less than 0.3 µM.
